In patent publication US7776833B2, “Use of cyclic bioisosters of purine system derivatives for treating diseases produced by disorders of niterergic and dopaminergic systems” (priority 2003, dated 2010):

Legend:
Format in all cases: in vivo, Wistar rats
[1] = test system: apomorphine-dependent erection; assay: Apomorphine-dependent erection in low-potency rats; conditions: compound 5 x 10 mg/kg intraperitoneally every 48 hours + apomorphine 0.1 mg/kg subcutaneously; 20 minutes monitoring; one value for the two compounds of the line
From the text: One of the mechanisms regulating the sexual function of mammals is associated with functioning of the dopaminergic system of the brain. It is well known that a non-selective D1/D2 agonist apomorphine in low doses causes penile erection in rodents (Giuliano F., Allard J. Dopamine and male sexual function. Eur. Urol., 2001, 40 (6), 601-608; Giuliano F., Allard J., Rampin O. et. al. Pro-erectile effect of systemic apomorphine: existence of a spinal site action. J. Urol., 2002, 167 (1), 402-406; Brien S. E., Smallegange C., Gofton W. T., et. al. Development of a rat model of sexual performance anxiety: effect of behavioral and pharmacological hyperadrenergic stimulation on apomorphine-induced erections. Int. J. Impot. Res., 2002, 14 (2), 107-115.). In this connection, we have studied the effects of the compounds according to the invention on apomorphine-dependent erection in rats.
Nine groups of adult male Wistar rats weighing 350-450 g maintained at the normal (not inverted) light cycle were used in the experiments. To study the effect of the compounds on the sexual function, low-potency animals with a single erection were selected. Control group No. 1 (n=7) was composed of animals not injected with the compounds according to the invention. The animals of groups Nos. 2-9 (n=7) were injected with one of the compounds according to the invention selected from the group of compounds 2, 8, 9, 15, 19, 25, 31, 36, intraperitoneally in a course of 5 injections at a dose of 10 mg/kg with an interval between the injections 48 hours. Apomorphine was dissolved in 0.1% aqueous solution of ascorbic acid and then was injected to all animal subcutaneously at a dose of 0.1 mg/kg during 24-28 hours after the last injection of the compounds according to the invention. The monitoring of sexual activity was made individually for each animal immediately after the administration of apomorphine; the monitoring time was 20 minutes. The following indices were registered: the time of beginning of the first erection, time intervals between the erections, the number of erections for the entire period of observation.
The statistical analysis of the results was made using T-test and ξ-square test. The results are given in Table 3 as means±standard error of means.

[2] = test system: physical dependence from morphine (morphine abstinence); assay: Morphine abstinence syndrome, signs scored in the open field test; conditions: Morphine − (morphine + compound); compound 3 x 20 mg/kg intramuscularly; one value for the three compounds
[3] = test system: nitrites and nitrates (NOx-); assay: Measurement of nitrates/nitrites (NOx-) in brain regions after the morphine abstinence experiment; conditions: 3 x 20 mg/kg intramuscularly
Procedure, shortened: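 Rat brain regions homogenized in 20 mM HEPES pH 7.5 at 4 °C; deproteinized supernatants treated with nitrate reductase, 25 μM NADPH, 25 μM FAD (37 °C, 30 min), then DAN in acid; naphthotriazole fluorescence (ex 365/em 405 nm) against sodium nitrate standard, expressed as nmol/mg protein (Bradford).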

[4] = test system: nitric oxide synthase (NOS); assay: Nitric oxide synthase activity in brain regions, radiometric [3H]L-citrulline method; conditions: 3 x 20 mg/kg intramuscularly
Procedure, shortened: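 Rat cortex, hippocampus, mesencephalon, striatum, brainstem, hypothalamus and cerebellum were homogenized in 20 mM HEPES pH 7.5, and the 11000 g supernatant was incubated 15-60 min at 37 °C with [3H]L-arginine, 0.2 mM CaCl2, FAD, FMN, NADPH and BH4. [3H]L-citrulline was counted after Dowex removal of arginine. Ca2+-dependent/independent activity was split using EDTA ± L-NAME, per mg Bradford protein.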

[5] = Groups Nos. 3-14, compound without morphine, one value for all 12 compounds
[6] = Morphine + compound, one value for the three compounds

Compound: Nc1ccnc2c(=O)n([C@@H]3O[C@H](CO)[C@@H](O)[C@H]3O)[nH]c(=O)c12.[Na] [Compound 2, sodium salt of 4-amino-7-(β-D-ribofuranosile)pyrido[2,3-d]-6H-pyridazine-5,8-dione]
- Latent period of first erection [1]: 5.21 ± 0.30 min
- Number of erection for the entire period of observation [1]: 3.13 ± 0.35
- Time between 1st and 2nd erections [1]: 3.94 ± 0.60 min
- Time between 3rd and 2nd erections [1]: 5.52 ± 1.14 min

Compound: O=c1[nH][nH]c(=O)c2ncccc12.[K] [Compound 8, potassium salt of pyrido [2,3-d]-6H-pyridazine-5,8-dione]
- Latent period of first erection [1]: 5.21 ± 0.30 min
- Number of erection for the entire period of observation [1]: 3.13 ± 0.35
- Time between 1st and 2nd erections [1]: 3.94 ± 0.60 min
- Time between 3rd and 2nd erections [1]: 5.52 ± 1.14 min

Compound: O=c1[nH]n([C@@H]2O[C@H](CO)[C@@H](O)[C@H]2O)c(=O)c2ccccc12.[Na] [Compound 9, sodium salt of 2-(β-D-ribofuranosile)benzo[d]-3H-pyridazine-1,4-dione]
- Latent period of first erection [1]: 5.09 ± 0.27 min
- Number of erection for the entire period of observation [1]: 3.24 ± 0.39
- Time between 1st and 2nd erections [1]: 3.87 ± 0.59 min
- Time between 3rd and 2nd erections [1]: 5.19 ± 0.78 min

Compound: Nc1cccc2c(=O)[nH][nH]c(=O)c12.[Na] [Compound 15, sodium salt of 5-amino-benzo[d]-3H-pyridazine-1,4-dione]
- Latent period of first erection [1]: 5.09 ± 0.27 min
- Number of erection for the entire period of observation [1]: 3.24 ± 0.39
- Time between 1st and 2nd erections [1]: 3.87 ± 0.59 min
- Time between 3rd and 2nd erections [1]: 5.19 ± 0.78 min

Compound: O=c1[nH]n([C@@H]2O[C@H](CO)[C@@H](O)[C@H]2O)c(=O)c2nccnc12.[Na] [Compound 19, sodium salt of 7-(β-D-ribofuranosile)pyrazino[2,3-d]-6H-pyridazine-5,8-dione]
- Latent period of first erection [1]: 5.24 ± 0.19 min
- Number of erection for the entire period of observation [1]: 3.29 ± 0.27
- Time between 1st and 2nd erections [1]: 3.75 ± 0.64 min
- Time between 3rd and 2nd erections [1]: 5.12 ± 0.87 min

Compound: O=c1[nH][nH]c(=O)c2nccnc12.[Li] [Compound 25, lithium salt of pyrazino[2,3-d]-6H-pyridazine-5,8-dione]
- Latent period of first erection [1]: 5.24 ± 0.19 min
- Number of erection for the entire period of observation [1]: 3.29 ± 0.27
- Time between 1st and 2nd erections [1]: 3.75 ± 0.64 min
- Time between 3rd and 2nd erections [1]: 5.12 ± 0.87 min

Compound: Nc1ncnc2c(=O)n([C@@H]3O[C@H](CO)[C@@H](O)[C@H]3O)[nH]c(=O)c12.[Na] [Compound 31, sodium salt of 4-amino-7-(β-D-ribofuranosile)pyrimido[4,5-d]-6H-pyridazine-5,8-dione]
- Latent period of first erection [1]: 5.12 ± 0.24 min
- Number of erection for the entire period of observation [1]: 3.32 ± 0.31
- Time between 1st and 2nd erections [1]: 3.34 ± 0.69 min
- Time between 3rd and 2nd erections [1]: 5.02 ± 1.01 min

Compound: Nc1ncc2c(=O)[nH][nH]c(=O)c2n1.[Na] [Compound 36, sodium salt of 2-amino-pyrimido[4,5-d]-6H-pyridazine-5,8-dione]
- Latent period of first erection [1]: 5.12 ± 0.24 min
- Number of erection for the entire period of observation [1]: 3.32 ± 0.31
- Time between 1st and 2nd erections [1]: 3.34 ± 0.69 min
- Time between 3rd and 2nd erections [1]: 5.02 ± 1.01 min

Compound: O=c1[nH][nH]c(=O)c2c(Br)ncnc12.[K] [Compound 37, potassium salt of 4-bromine-pyrimido[4,5-d]-6H-pyridazine-5,8-dione]
- Authentic differences (ξ-square criterion) in appearance of signs of abstinence: <<Wet dog>> shakes [2]: 1.0000
- Authentic differences (ξ-square criterion) in appearance of signs of abstinence: Aggression [2]: 0.8456
- Authentic differences (ξ-square criterion) in appearance of signs of abstinence: Convulsions [2]: 0.5578
- Authentic differences (ξ-square criterion) in appearance of signs of abstinence: Diarrhea [2]: 0.0001
- Authentic differences (ξ-square criterion) in appearance of signs of abstinence: Dyspnea [2]: 0.0685
- Authentic differences (ξ-square criterion) in appearance of signs of abstinence: Forelimb jogging [2]: 0.9321
- Authentic differences (ξ-square criterion) in appearance of signs of abstinence: Grit with teeth [2]: 0.7003
- Authentic differences (ξ-square criterion) in appearance of signs of abstinence: Mastication [2]: 0.1888
- Authentic differences (ξ-square criterion) in appearance of signs of abstinence: Piloerection [2]: 0.2345
- Authentic differences (ξ-square criterion) in appearance of signs of abstinence: Ptosis [2]: 0.0232
- Authentic differences (ξ-square criterion) in appearance of signs of abstinence: Rhinorrhea [2]: 0.2935
- Authentic differences (ξ-square criterion) in appearance of signs of abstinence: Squeak when touched [2]: 0.2035
- Nitrites, brainstem [3, 5]: 6.31 ± 0.58 nmol/mg of protein
- Nitrites, cerebellum [3, 5]: 6.66 ± 0.63 nmol/mg of protein
- Nitrites, cerebral cortex [3, 5]: 4.31 ± 0.37 nmol/mg of protein
- Nitrites, hippocampus [3, 5]: 6.47 ± 0.72 nmol/mg of protein
- Nitrites, hypothalamus [3, 5]: 6.77 ± 0.83 nmol/mg of protein
- Nitrites, midbrain [3, 5]: 6.65 ± 0.70 nmol/mg of protein
- Nitrites, striatum [3, 5]: 6.11 ± 0.29 nmol/mg of protein
- Nitrites, brainstem [3, 6]: 6.87 ± 0.81 nmol/mg of protein
- Nitrites, cerebellum [3, 6]: 5.93 ± 0.54 nmol/mg of protein
- Nitrites, cerebral cortex [3, 6]: 4.84 ± 0.31 nmol/mg of protein
- Nitrites, hippocampus [3, 6]: 5.31 ± 0.33 nmol/mg of protein
- Nitrites, hypothalamus [3, 6]: 6.77 ± 0.46 nmol/mg of protein
- Nitrites, midbrain [3, 6]: 5.95 ± 0.52 nmol/mg of protein
- Nitrites, striatum [3, 6]: 3.57 ± 0.42 nmol/mg of protein
- Activity of NOS, hippocampus [4, 5]: 3.09 ± 0.16 nmol/min/mg of protein
- Activity of NOS, hypothalamus [4, 5]: 5.45 ± 0.24 nmol/min/mg of protein
- Activity of NOS, midbrain [4, 5]: 2.60 ± 0.29 nmol/min/mg of protein
- Activity of NOS, striatum [4, 5]: 1.26 ± 0.08 nmol/min/mg of protein
- Activity of NOS, hippocampus [4, 6]: 2.65 ± 0.15 nmol/min/mg of protein
- Activity of NOS, hypothalamus [4, 6]: 5.56 ± 0.34 nmol/min/mg of protein
- Activity of NOS, midbrain [4, 6]: 1.89 ± 0.27 nmol/min/mg of protein
- Activity of NOS, striatum [4, 6]: 1.34 ± 0.09 nmol/min/mg of protein
